Values after ≈ are worked out from the molar mass of the structure shown. Read-outs that look alike come from different tables or passages of the source. Positions of bridges follow the written chain, without caps; N, C: chain ends. Non-standard residues stand in square brackets, D forms with d. Residues, ends and D or L forms follow the SMILES beside them. *: point of attachment. Decanoyl(3R-OH) = CCCCCCC[C@@H](O)CC(=O)*; X7 = CCC(C)CCCCC(O)CC(=O)*; dDab = NCC[C@@H](N)C(=O)O; X2 = CCC(C)CCC(O)CC(=O)*; Dab = NCC[C@H](N)C(=O)O; X5 = O=C(CCCCCCCO)*
Legend:
in vitro [1] = details: human
Procedure, shortened: (§1)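 Viability is measured by resazurin reduction (5 μM, 2 h, 37 °C) after cells seeded at 4000 per well are treated with compound for 24 h.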

[2] = test system: K. pneumoniae GN_106, PmxR
Procedure, shortened: (§2)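 Mid-log cultures grown in Mueller Hinton broth at 37° C were tested by 2-fold broth microdilution at 5×10^5 CFU/mL final. Compounds were dissolved in water and tested over a final range of 32 to 0.015 μg/mL.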

P. aeruginosa ATCC 27853 = test system: P. aeruginosa ATCC 27853
Procedure, shortened: as §2

E. coli ATCC 25922 = test system: E. coli ATCC 25922
Procedure, shortened: as §2

[3] = test system: P. aeruginosa GN_105, PmxR
Procedure, shortened: as §2

[4] = test system: K. pneumoniae ATCC 700603, MDR
Procedure, shortened: as §2

K. pneumoniae ATCC 13883 = test system: K. pneumoniae ATCC 13883
Procedure, shortened: as §2

A. baumannii ATCC 19606 = test system: A. baumannii ATCC 19606
Procedure, shortened: as §2

[5] = test system: K. pneumoniae ATCC BAA-2146, NDM-1 pos
Procedure, shortened: as §2

[6] = test system: P. aeruginosa GN_043, PmxR
Procedure, shortened: as §2

A. baumannii GN_093 PmxR = test system: A. baumannii GN_093 PmxR
Procedure, shortened: as §2

[7] = test system: S. aureus ATCC 25923, MSSA
Procedure, shortened: as §2

[8] = test system: K. pneumoniae GN_102 PmxR
Procedure, shortened: as §2

in vitro [9] = details: human; remark: listed apart in the source
Procedure, shortened: as §1

in vitro [10] = details: human; remark: listed apart in the source
Procedure, shortened: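 HK2 cells were seeded at 2000 per well in DMEM/F12 with 10% FBS and left to attach for 24 h at 37 °C, 5% CO2. They were then exposed for 24 h to 3-fold peptide dilutions starting from 600 μM solutions in quadruplicate. LDH release was read at 450 nm, and CC50 was fitted from dose-response curves.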

Q: Which results are given for `CC(C)C[C@@H]1NC(=O)[C@H](CCN)NC(=O)[C@H](CCN)NC(=O)[C@H](CC(C)C)NC(=O)[C@@H](Cc2ccccc2)NC(=O)[C@H](CCN)NC(=O)[C@@H](NC(=O)[C@@H](CCN)NC(=O)CCCCCCCO)CCNC1=O` [compound 6522, 8OH-nC7CO-D-Dab-cyc[L-Dab-L-Dab-D-Phe-L-Leu-L-Dab-L-Dab-L-Leu]] (X5-[dDab][Dab][Dab][dF]L[Dab][Dab]L; lactam 2-C)?
A: CC50 at 24 h (in vitro [1]): > 300 µM; MIC K. pneumoniae GN_106, PmxR ([2]; GN 106, PmxR): >32 µg/mL; MIC P. aeruginosa ATCC 27853 (P. aeruginosa ATCC 27853): 2 µg/mL (≈ 1.97 µM); MIC E. coli ATCC 25922 (E. coli ATCC 25922): >32 µg/mL; MIC P. aeruginosa GN_105, PmxR ([3]; GN 105, PmxR): >32 µg/mL; MIC K. pneumoniae ATCC 700603, MDR [4]: >32 µg/mL; MIC K. pneumoniae ATCC 13883 (K. pneumoniae ATCC 13883): >32 µg/mL; MIC A. baumannii ATCC 19606 (A. baumannii ATCC 19606): >32 µg/mL; MIC K. pneumoniae ATCC BAA-2146, NDM-1 pos [5]: >32 µg/mL; MIC P. aeruginosa GN_043, PmxR [6]: 2 µg/mL (≈ 1.97 µM); MIC A. baumannii GN_093 PmxR (A. baumannii GN_093 PmxR; GN 093 PmxR): >32 µg/mL; MIC S. aureus ATCC 25923, MSSA [7]: >32 µg/mL; MIC K. pneumoniae GN_102 PmxR ([8]; GN 102 PmxR): >32 µg/mL; CC50 at 24 h (in vitro [9]): > 300 µM; CC50 at 24 h (in vitro [10]): 208 µM

Q: What does the source list for `CCC(C)CCC(O)CC(=O)N[C@H](CCN)C(=O)N[C@H]1CCNC(=O)[C@H](CC(C)C)NC(=O)[C@H](CCN)NC(=O)[C@H](CCN)NC(=O)[C@H](Cc2ccccc2)NC(=O)[C@H](CC(C)C)NC(=O)[C@H](CCN)NC1=O` (stereo partly drawn) [compound 6371, nC5(6-Me)CH(OH)CH2CO-D-Dab-cyc[L-Dab-L-Dab-L-Leu-L-Phe-L-Dab-L-Dab-L-Leu]] (X2-[dDab][Dab][Dab]LF[Dab][Dab]L; lactam 2-C)?
A: CC50 at 24 h (in vitro [1]): > 300 µM; MIC K. pneumoniae GN_106, PmxR ([2]; GN 106, PmxR): >32 µg/mL; MIC P. aeruginosa ATCC 27853 (P. aeruginosa ATCC 27853): 32 µg/mL (≈ 31.1 µM); MIC E. coli ATCC 25922 (E. coli ATCC 25922): >32 µg/mL; MIC P. aeruginosa GN_105, PmxR ([3]; GN 105, PmxR): >32 µg/mL; MIC K. pneumoniae ATCC 700603, MDR [4]: >32 µg/mL; MIC K. pneumoniae ATCC 13883 (K. pneumoniae ATCC 13883): >32 µg/mL; MIC A. baumannii ATCC 19606 (A. baumannii ATCC 19606): >32 µg/mL; MIC K. pneumoniae ATCC BAA-2146, NDM-1 pos [5]: >32 µg/mL; MIC P. aeruginosa GN_043, PmxR ([6]; P. aeruginosa GN_043, PmxR): >32 µg/mL; MIC A. baumannii GN_093 PmxR (A. baumannii GN_093 PmxR; GN 093 PmxR): >32 µg/mL; MIC S. aureus ATCC 25923, MSSA [7]: >32 µg/mL; MIC K. pneumoniae GN_102 PmxR ([8]; GN 102 PmxR): >32 µg/mL; CC50 at 24 h (in vitro [9]): > 300 µM; CC50 at 24 h (in vitro [10]): > 300 µM

Q: With `CCC(C)CCCCC(O)CC(=O)N[C@@H](CCN)C(=O)N[C@H]1CCNC(=O)[C@H](CC(C)C)NC(=O)[C@H](CCN)NC(=O)[C@H](CCN)NC(=O)[C@H](CC(C)C)NC(=O)[C@@H](Cc2ccccc2)NC(=O)[C@H](CCN)NC1=O` (stereo partly drawn) [compound 5567, nC7(8-Me)CH(OH)CH2CO-L-Dab-cyc[L-Dab-L-Dab-D-Phe-L-Leu-L-Dab-L-Dab-L-Leu]] (X7-[Dab][Dab][Dab][dF]L[Dab][Dab]L; lactam 2-C) as the molecule, how does the CC50 at 24 h (in vitro [1]) read?
A: 292 µM

Q: What about the “MIC K. pneumoniae GN_106, PmxR” value ([2]; Table 6, polymyxin-resistant) of the same molecule?
A: 4 µg/mL (≈ 3.78 µM)

Q: What about the “MIC, P. aeruginosa ATCC 27853” value (P. aeruginosa ATCC 27853; Table 6) of the same molecule?
A: 2 µg/mL (≈ 1.89 µM)

Q: And the “MIC, E. coli ATCC 25922” value (E. coli ATCC 25922; Table 6)?
A: 8 µg/mL (≈ 7.56 µM)

Q: And the “MIC P. aeruginosa GN_105, PmxR” value ([3]; Table 6, polymyxin-resistant)?
A: 2 µg/mL (≈ 1.89 µM)

Q: And the “MIC, K. pneumoniae ATCC 700603, MDR” value ([4]; Table 6)?
A: 8 µg/mL (≈ 7.56 µM)

Q: And the “MIC, K. pneumoniae ATCC 13883” value (K. pneumoniae ATCC 13883; Table 6)?
A: 8 µg/mL (≈ 7.56 µM)

Q: What about the “MIC, A. baumannii ATCC 19606” value (A. baumannii ATCC 19606; Table 6) of the same molecule?
A: 8 µg/mL (≈ 7.56 µM)

Q: What about the “MIC, K. pneumoniae ATCC BAA-2146, NDM-1 pos” value ([5]; Table 6) of the same molecule?
A: 8 µg/mL (≈ 7.56 µM)

Q: What about the “MIC P. aeruginosa GN_043, PmxR” value ([6]; Table 6, polymyxin-resistant) of the same molecule?
A: 2 µg/mL (≈ 1.89 µM)

Q: And the “MIC A. baumannii GN_093 PmxR” value (A. baumannii GN_093 PmxR; Table 6, polymyxin-resistant)?
A: 16 µg/mL (≈ 15.1 µM)

Q: What about the “MIC, S. aureus ATCC 25923, MSSA” value ([7]; Table 6) of the same molecule?
A: 32 µg/mL (≈ 30.2 µM)

Q: What about the “MIC K. pneumoniae GN_102 PmxR” value ([8]; Table 6, polymyxin-resistant) of the same molecule?
A: 8 µg/mL (≈ 7.56 µM)

Q: And the CC50 at 24 h (in vitro [9])?
A: 150 µM

Q: What about the CC50 at 24 h (in vitro [10]) of the same molecule?
A: 54 µM

Q: Which CC50 at 24 h (in vitro [1]) does the source give for `CCCCCCC[C@@H](O)CC(=O)N[C@@H](CCN)C(=O)N[C@@H]1CCNC(=O)[C@H](CC(C)C)NC(=O)[C@H](CCN)NC(=O)[C@H](CCN)NC(=O)[C@H](CC(C)C)NC(=O)[C@@H](Cc2ccccc2)NC(=O)[C@H](CCN)NC1=O` [compound 6658, 3(R)OH-nC9CO-L-Dab-cyc[D-Dab-L-Dab-D-Phe-L-Leu-L-Dab-L-Dab-L-Leu]] ({Decanoyl(3R-OH)}-[Dab][dDab][Dab][dF]L[Dab][Dab]L; lactam 2-C) here?
A: > 300 µM

Q: What about the “MIC K. pneumoniae GN_106, PmxR” value ([2]; GN 106, PmxR) of the same molecule?
A: >32 µg/mL

Q: And the “MIC P. aeruginosa ATCC 27853” value (P. aeruginosa ATCC 27853)?
A: 32 µg/mL (≈ 30.6 µM)

Q: What about the “MIC E. coli ATCC 25922” value (E. coli ATCC 25922) of the same molecule?
A: >32 µg/mL

Q: What about the “MIC P. aeruginosa GN_105, PmxR” value ([3]; GN 105, PmxR) of the same molecule?
A: >32 µg/mL

Q: What about the “MIC K. pneumoniae ATCC 700603, MDR” value [4] of the same molecule?
A: >32 µg/mL

Q: And the “MIC K. pneumoniae ATCC 13883” value (K. pneumoniae ATCC 13883)?
A: >32 µg/mL

Q: What about the “MIC A. baumannii ATCC 19606” value (A. baumannii ATCC 19606) of the same molecule?
A: >32 µg/mL

Q: And the “MIC K. pneumoniae ATCC BAA-2146, NDM-1 pos” value [5]?
A: >32 µg/mL

Q: What about the “MIC P. aeruginosa GN_043, PmxR” value ([6]; P. aeruginosa GN_043, PmxR) of the same molecule?
A: >32 µg/mL

Q: What about the “MIC A. baumannii GN_093 PmxR” value (A. baumannii GN_093 PmxR; GN 093 PmxR) of the same molecule?
A: >32 µg/mL

Q: What about the “MIC S. aureus ATCC 25923, MSSA” value [7] of the same molecule?
A: >32 µg/mL

Q: And the “MIC K. pneumoniae GN_102 PmxR” value ([8]; GN 102 PmxR)?
A: >32 µg/mL

Q: And the CC50 at 24 h (in vitro [9])?
A: > 300 µM

Q: What about the CC50 at 24 h (in vitro [10]) of the same molecule?
A: > 300 µM
